Patent US11459323B2, “Monocyclic β-lactam compound for treating bacterial infection” (MEDSHINE DISCOVERY INC., priority 2018, dated 2022)
≈ marks a conversion by molar mass, not a printed value. One block for each compound: values may come before it.

How the values were obtained:
Test in all cases: MIC on clinically isolated bacteria
Assay type in all cases: cell-based
[1] = system: Acinetobacter baumannii C181; conditions: Acinetobacter baumannii C181; read-out: Minimum Inhibitory Concentration (MIC)
Text: (§1) Twenty-five strains of clinically isolated Acinetobacter baumannii and twenty-seven strains of Pseudomonas aeruginosa were respectively selected and used to determine the minimum inhibitory concentration (MIC) of the compounds by micro-liquid dilution method according to the Institute of Clinical and Laboratory Standard (CLSI) requirements.

[2] = system: Acinetobacter baumannii C241; conditions: Acinetobacter baumannii C241; read-out: Minimum Inhibitory Concentration (MIC)
Text: as §1

[3] = system: Acinetobacter baumannii C251; conditions: Acinetobacter baumannii C251; read-out: Minimum Inhibitory Concentration (MIC)
Text: as §1

[4] = system: Acinetobacter baumannii C270; conditions: Acinetobacter baumannii C270; read-out: Minimum Inhibitory Concentration (MIC)
Text: as §1

[5] = system: Acinetobacter baumannii C279; conditions: Acinetobacter baumannii C279; read-out: Minimum Inhibitory Concentration (MIC)
Text: as §1

[6] = system: Acinetobacter baumannii C281; conditions: Acinetobacter baumannii C281; read-out: Minimum Inhibitory Concentration (MIC)
Text: as §1

[7] = system: Acinetobacter baumannii C312; conditions: Acinetobacter baumannii C312; read-out: Minimum Inhibitory Concentration (MIC)
Text: as §1

[8] = system: Acinetobacter baumannii C313; conditions: Acinetobacter baumannii C313; read-out: Minimum Inhibitory Concentration (MIC)
Text: as §1

[9] = system: Acinetobacter baumannii C319; conditions: Acinetobacter baumannii C319; read-out: Minimum Inhibitory Concentration (MIC)
Text: as §1

[10] = system: Acinetobacter baumannii C328; conditions: Acinetobacter baumannii C328; read-out: Minimum Inhibitory Concentration (MIC)
Text: as §1

[11] = system: Acinetobacter baumannii C330; conditions: Acinetobacter baumannii C330; read-out: Minimum Inhibitory Concentration (MIC)
Text: as §1

[12] = system: Acinetobacter baumannii C332; conditions: Acinetobacter baumannii C332; read-out: Minimum Inhibitory Concentration (MIC)
Text: as §1

[13] = system: Acinetobacter baumannii C333; conditions: Acinetobacter baumannii C333; read-out: Minimum Inhibitory Concentration (MIC)
Text: as §1

[14] = system: Acinetobacter baumannii C357; conditions: Acinetobacter baumannii C357; read-out: Minimum Inhibitory Concentration (MIC)
Text: as §1

[15] = system: Acinetobacter baumannii C361; conditions: Acinetobacter baumannii C361; read-out: Minimum Inhibitory Concentration (MIC)
Text: as §1

[16] = system: Acinetobacter baumannii C390; conditions: Acinetobacter baumannii C390; read-out: Minimum Inhibitory Concentration (MIC)
Text: as §1

[17] = system: Acinetobacter baumannii C394; conditions: Acinetobacter baumannii C394; read-out: Minimum Inhibitory Concentration (MIC)
Text: as §1

[18] = system: Acinetobacter baumannii C401; conditions: Acinetobacter baumannii C401; read-out: Minimum Inhibitory Concentration (MIC)
Text: as §1

[19] = system: Acinetobacter baumannii C402; conditions: Acinetobacter baumannii C402; read-out: Minimum Inhibitory Concentration (MIC)
Text: as §1

[20] = system: Acinetobacter baumannii C403; conditions: Acinetobacter baumannii C403; read-out: Minimum Inhibitory Concentration (MIC)
Text: as §1

[21] = system: Pseudomonas aeruginosa C745; conditions: read-out: MIC
Text: as §1

[22] = system: Pseudomonas aeruginosa C754; conditions: read-out: MIC
Text: as §1

[23] = system: Pseudomonas aeruginosa C755; conditions: read-out: MIC
Text: as §1

[24] = system: Pseudomonas aeruginosa C763; conditions: read-out: MIC
Text: as §1

[25] = system: Pseudomonas aeruginosa W13; conditions: read-out: MIC
Text: as §1

[26] = system: Pseudomonas aeruginosa W19; conditions: read-out: MIC
Text: as §1

[27] = system: Pseudomonas aeruginosa W1; conditions: read-out: MIC
Text: as §1

[28] = system: Pseudomonas aeruginosa W20; conditions: read-out: MIC
Text: as §1

[29] = system: Pseudomonas aeruginosa W21; conditions: read-out: MIC
Text: as §1

[30] = system: Pseudomonas aeruginosa W24; conditions: read-out: MIC
Text: as §1

[31] = system: Pseudomonas aeruginosa W27; conditions: read-out: MIC
Text: as §1

[32] = system: Pseudomonas aeruginosa W28; conditions: read-out: MIC
Text: as §1

[33] = system: Pseudomonas aeruginosa W29; conditions: read-out: MIC
Text: as §1

[34] = system: Pseudomonas aeruginosa W32; conditions: read-out: MIC
Text: as §1

[35] = system: Pseudomonas aeruginosa W35; conditions: read-out: MIC
Text: as §1

[36] = system: Pseudomonas aeruginosa W42; conditions: read-out: MIC
Text: as §1

[37] = system: Pseudomonas aeruginosa W46; conditions: read-out: MIC
Text: as §1

[38] = system: Pseudomonas aeruginosa W47; conditions: read-out: MIC
Text: as §1

[39] = system: Pseudomonas aeruginosa W4; conditions: read-out: MIC
Text: as §1

[40] = system: Pseudomonas aeruginosa W6; conditions: read-out: MIC
Text: as §1

[41] = system: Pseudomonas aeruginosa W9; conditions: read-out: MIC
Text: as §1

- MIC [1]: 4 µg/mL (≈ 5.04 µM)
- MIC [2]: 4 µg/mL (≈ 5.04 µM)
- MIC [3]: > 16 µg/mL
- MIC [4]: 4 µg/mL (≈ 5.04 µM)
- MIC [5]: 4 µg/mL (≈ 5.04 µM)
- MIC [6]: 4 µg/mL (≈ 5.04 µM)
- MIC [7]: 4 µg/mL (≈ 5.04 µM)
- MIC [8]: 4 µg/mL (≈ 5.04 µM)
- MIC [9]: 4 µg/mL (≈ 5.04 µM)
- MIC [10]: 4 µg/mL (≈ 5.04 µM)
- MIC [11]: 4 µg/mL (≈ 5.04 µM)
- MIC [12]: 4 µg/mL (≈ 5.04 µM)
- MIC [13]: 4 µg/mL (≈ 5.04 µM)
- MIC [14]: 4 µg/mL (≈ 5.04 µM)
- MIC [15]: 4 µg/mL (≈ 5.04 µM)
- MIC [16]: 4 µg/mL (≈ 5.04 µM)
- MIC [17]: 4 µg/mL (≈ 5.04 µM)
- MIC [18]: 4 µg/mL (≈ 5.04 µM)
- MIC [19]: 4 µg/mL (≈ 5.04 µM)
- MIC [20]: 4 µg/mL (≈ 5.04 µM)
- MIC [21]: 4 µg/mL (≈ 5.04 µM)
- MIC [22]: 0.5 µg/mL (≈ 0.631 µM)
- MIC [23]: 0.5 µg/mL (≈ 0.631 µM)
- MIC [24]: 4 µg/mL (≈ 5.04 µM)
- MIC [25]: 0.25 µg/mL (≈ 0.315 µM)
- MIC [26]: 0.5 µg/mL (≈ 0.631 µM)
- MIC [27]: 1 µg/mL (≈ 1.26 µM)
- MIC [28]: 1 µg/mL (≈ 1.26 µM)
- MIC [29]: 0.25 µg/mL (≈ 0.315 µM)
- MIC [30]: 1 µg/mL (≈ 1.26 µM)
- MIC [31]: 1 µg/mL (≈ 1.26 µM)
- MIC [32]: 4 µg/mL (≈ 5.04 µM)
- MIC [33]: 1 µg/mL (≈ 1.26 µM)
- MIC [34]: 1 µg/mL (≈ 1.26 µM)
- MIC [35]: 0.25 µg/mL (≈ 0.315 µM)
- MIC [36]: 0.5 µg/mL (≈ 0.631 µM)
- MIC [37]: 0.5 µg/mL (≈ 0.631 µM)
- MIC [38]: 1 µg/mL (≈ 1.26 µM)
- MIC [39]: 1 µg/mL (≈ 1.26 µM)
- MIC [40]: 1 µg/mL (≈ 1.26 µM)
- MIC [41]: 1 µg/mL (≈ 1.26 µM)
Structure (SMILES): CC1(C)[C@H](NC(=O)/C(=N\O[C@@H](COc2ccc3c(c2)CN(/C(=N\[C@@H]2CCCNC2)N[C@@H]2CCCNC2)C3)C(=O)O)c2csc(N)n2)C(=O)N1OS(=O)(=O)O [Compound 46]

- MIC [1]: 2 µg/mL (≈ 2.99 µM)
- MIC [2]: 2 µg/mL (≈ 2.99 µM)
- MIC [3]: 4 µg/mL (≈ 5.97 µM)
- MIC [4]: 1 µg/mL (≈ 1.49 µM)
- MIC [5]: 1 µg/mL (≈ 1.49 µM)
- MIC [6]: 1 µg/mL (≈ 1.49 µM)
- MIC [7]: 1 µg/mL (≈ 1.49 µM)
- MIC [8]: 1 µg/mL (≈ 1.49 µM)
- MIC [9]: 1 µg/mL (≈ 1.49 µM)
- MIC [10]: 1 µg/mL (≈ 1.49 µM)
- MIC [11]: 1 µg/mL (≈ 1.49 µM)
- MIC [12]: 1 µg/mL (≈ 1.49 µM)
- MIC [13]: 2 µg/mL (≈ 2.99 µM)
- MIC [14]: 1 µg/mL (≈ 1.49 µM)
- MIC [15]: 1 µg/mL (≈ 1.49 µM)
- MIC [16]: 1 µg/mL (≈ 1.49 µM)
- MIC [17]: 1 µg/mL (≈ 1.49 µM)
- MIC [18]: 1 µg/mL (≈ 1.49 µM)
- MIC [19]: 1 µg/mL (≈ 1.49 µM)
- MIC [20]: 2 µg/mL (≈ 2.99 µM)
- MIC [21]: 4 µg/mL (≈ 5.97 µM)
- MIC [22]: 0.5 µg/mL (≈ 0.747 µM)
- MIC [23]: 0.5 µg/mL (≈ 0.747 µM)
- MIC [24]: 2 µg/mL (≈ 2.99 µM)
- MIC [25]: 0.5 µg/mL (≈ 0.747 µM)
- MIC [26]: 1 µg/mL (≈ 1.49 µM)
- MIC [27]: 2 µg/mL (≈ 2.99 µM)
- MIC [28]: 2 µg/mL (≈ 2.99 µM)
- MIC [29]: 0.5 µg/mL (≈ 0.747 µM)
- MIC [30]: 2 µg/mL (≈ 2.99 µM)
- MIC [31]: 4 µg/mL (≈ 5.97 µM)
- MIC [32]: 4 µg/mL (≈ 5.97 µM)
- MIC [33]: 2 µg/mL (≈ 2.99 µM)
- MIC [34]: 2 µg/mL (≈ 2.99 µM)
- MIC [35]: 0.25 µg/mL (≈ 0.373 µM)
- MIC [36]: 0.5 µg/mL (≈ 0.747 µM)
- MIC [37]: 1 µg/mL (≈ 1.49 µM)
- MIC [38]: 2 µg/mL (≈ 2.99 µM)
- MIC [39]: 0.5 µg/mL (≈ 0.747 µM)
- MIC [40]: 4 µg/mL (≈ 5.97 µM)
- MIC [41]: 4 µg/mL (≈ 5.97 µM)
Structure (SMILES): CC1(C)[C@H](NC(=O)/C(=N\O[C@@H](COc2ccc3c(c2)CN(C(=N)NCCN)C3)C(=O)O)c2csc(N)n2)C(=O)N1OS(=O)(=O)O [Compound 44]
